Patent US5852018A, “Pharmaceutical piperazine compounds” (Xenova Limited, priority 1994, dated 1998)

How the values were obtained:
AR 1.0 cells [1] = test: Drug accumulation assay (tritiated daunorubicin) in MDR resistant AR 1.0 cells; format: cell-based; settings: Mus musculus, DNR 2 μM; for IC50: 37° C., 1 hr; for Emax: 1 h, 100% = accumulation with 100 μM Verapamil, read-out: MAX accumulation (% 100 μm VRP)
Method: The EMT6 mouse mammary carcinoma cell line and the MDR resistant subline AR 1.0 were cultured in RPMI 1640 medium containing 10% foetal calf serum and 2 mM glutamine at 37° C. in 5% CO2 . Cells were passaged between 1 in 200 and 1 in 2000 in the case of the parental cell line and between 1 in 20 and 1 in 200 in the case of the MDR resistant subline, after trypsinisation (0.25% trypsin, 0.2 gl^-1, EDTA).
AR 1.0 cells were seeded into 96 well opaque culture plates (Canberra Packard). The assay medium contained a mixture of tritiated Daunorubicin (DNR), a cytotoxic agent, and unlabelled DNR (0.25μ Ci/ml; 2 μM). Compounds of formula A were serially diluted in assay medium over a range of concentrations from 100 nM to 100 μM. The cells were incubated at 37° C. for 1 hr before washing and counting of cell associated radioactivity. Each assay included a titration of the known resistance modifying agent Verapamil as positive control. Results were expressed as % maximum accumulation where 100% accumulation is that observed in the presence of 100 μM Verapamil.

AR 1.0 cells [2] = test: Proliferation assay with and without fixed concentration of doxorubicin (sulphorhodamine B); format: cell-based, mouse; settings: for IC50: four days
Description: Compounds of formula A were examined for their ability to potentiate the toxicity of doxorubicin in AR 1.0 cells.

[3] = Mus musculus, 96 h, compound alone, read-out: COMPOUND TOXICITY (IC50)
[4] = cytotoxic agent 0.50 μg/ml, 5760 min, read-out: TOXICITY WITH CYTOTOXIC AGENT (IC 50)

IC50 (AR 1.0 cells [1])	SMILES	Emax (AR 1.0 cells [1])	also measured
10 µM	CC(C)Cn1c(=O)/c(=C/c2ccccc2)n(C)c(=O)/c1=C/c1ccccc1 [Compound 1857, (3Z,6Z)-3,6-Dibenzylidene-1-isobutyl-4-methyl-2,5-piperazinedione]		
2 µM	COc1ccc(/C=c2/c(=O)n(C)/c(=C\c3ccccc3[N+](=O)[O-])c(=O)n2Cc2ccccc2)cc1 [Compound 1879, (3Z,6Z)-1-Benzyl-6-(4-methoxybenzylidene)-4-methyl-3-(2-nitrobenzylidene)-2,5-piperazinedione]		
2 µM	Cn1c(=O)/c(=C/c2ccccc2)n(Cc2cccc([N+](=O)[O-])c2)c(=O)/c1=C/c1ccccc1 [Compound 1936, (3Z,6Z)-3,6-Dibenzylidene-1-methyl-4-(3-nitrobenzylidene)-2,5-piperazinedione]		
8 µM	CC=CCn1c(=O)/c(=C/c2ccccc2)n(C)c(=O)/c1=C/c1ccccc1 [Compound 1862, (3Z,6Z)-3,6-Dibenzylidene-1-(but-2-enyl)-4-methyl-2,5-piperazinedione]		
3 µM	CN(C)CCCOc1n/c(=C\c2ccccc2)c(=O)n(C)/c1=C\c1ccccc1 [Compound 1900, (3Z,6Z)-3,6-Dibenzylidene-5-(3-dimethylaminopropoxy)-1-methyl-3,6-dihydro-2-pyrazinone]		
10 µM	Cn1c(=O)/c(=C/c2ccccc2)nc(OCCO)/c1=C/c1ccccc1 [Compound 1863, (3Z,6Z)-3,6-Dibenzylidene-5-(2-hydroxyethoxy)-1-methyl-3,6-dihydro-2-pyrazinone]		
4 µM	Cn1c(=O)/c(=C/c2ccccc2)n(Cc2ccc([N+](=O)[O-])cc2)c(=O)/c1=C/c1ccccc1 [Compound 1939, (3Z,6Z)-3,6-Dibenzylidene-1-methyl-4-(4-nitrobenzylidene)-2,5-piperazinedione]		
	CC(C)Oc1n/c(=C\c2ccccc2)c(=O)n(C)/c1=C\c1ccccc1 [Compound 1819, (3Z,6Z)-3,6-Dibenzylidene-5-isopropoxy-1-methyl-3,6-dihydro-2-pyrazinone]	23%	
30 µM	COc1ccc(/C=c2/c(=O)[nH]/c(=C\c3ccccc3)c(=O)n2CC(=O)N2CCCC2)cc1 [Compound 1521, N,N-Tetramethylene-(3Z,6Z)-3-benzylidene-6-(4-methoxybenzylidene)-2,5-dioxo-1-piperazinylacetamide]	65.2%	IC50 (AR 1.0 cells [2]; [3]): 70 µM
60 µM	Cn1c(=O)/c(=C/c2ccccc2)n(CC#N)c(=O)/c1=C/c1ccccc1 [Compound 1858, ((3Z,6Z)-3,6-Dibenzylidene-4-methyl-2,5-dioxo-1-piperazinyl)acetonitrile]		
	Cn1c(=O)/c(=C/c2ccccc2)nc(OCC#N)/c1=C/c1ccccc1 [Compound 1827, (3Z,6Z)-3,6-Dibenzylidene-1-methyl-2-oxo-1,2,3,6-tetrahydro-5-pyrazinyloxyacetonitrile]	35%	
5 µM	COc1ccc(/C=c2/c(=O)n(Cc3ccccc3)/c(=C\c3c(Cl)cccc3Cl)c(=O)n2C)cc1 [Compound 1878, (3Z,6Z)-1-Benzyl-6-(2,6-dichlorobenzylidene)-3-(4-methoxybenzylidene)-4-methyl-2,5-piperazinedione]		
	C=CCCOc1n/c(=C\c2ccccc2)c(=O)n(C)/c1=C\c1ccccc1 [Compound 1826, (3Z,6Z)-3,6-Dibenzylidene-5-(3-butenyloxy)-1-methyl-3,6-dihydro-2-pyrazinone]	40%	
	CCOc1n/c(=C\c2ccccc2)c(=O)n(C)/c1=C\c1ccccc1 [Compound 1801, (3Z,6Z)-3,6-Dibenzylidene-5-ethoxy-1-methyl-3,6-dihydro-2-pyrazinone]	40%	
	CC=CCOc1n/c(=C\c2ccccc2)c(=O)n(C)/c1=C\c1ccccc1 [Compound 1861, (3Z,6Z)-3,6-Dibenzylidene-5-(2-butenyloxy)-1-methyl-3,6-dihydro-2-pyrazinone]	46%	
10 µM	Cn1c(=O)/c(=C/c2ccccc2)n(CC=CCBr)c(=O)/c1=C/c1ccccc1 [Compound 1860]		
11 µM	Cn1c(=O)/c(=C/c2ccccc2)nc(OCCN2C(=O)c3ccccc3C2=O)/c1=C/c1ccccc1 [Compound 1902, (3Z,6Z)-3,6-Dibenzylidene-1-methyl-5-(2-phthalimidoethoxy)-3,6-dihydro-2-pyrazinone]		

IC50 (AR 1.0 cells [1])	SMILES	Emax (AR 1.0 cells [1])	also measured
	COc1ccc(/C=c2/c(=O)[nH]/c(=C\c3ccccc3)c(=O)n2CC(=O)N(C)C)cc1 [Compound 1614, N,N,-Dimethyl-(3Z,6Z)-3-benzylidene-6-(4-methoxybenzylidene)-2,5-dioxo-1-piperazinylacetamide]	25%	
	CC(=O)OCCCCOc1n/c(=C\c2ccccc2)c(=O)n(C)/c1=C\c1ccccc1 [Compound 1904, (3Z,6Z)-5-(4-Acetoxybutoxy)-3,6-dibenzylidene-1-methyl-3,6-dihydro-2-pyrazinone]	47%	
70 µM	COc1n/c(=C\c2ccccc2)c(=O)n(C)/c1=C\c1ccccc1 [Compound 1771]	60%	
	COc1ccc(/C=c2\nc(OCC3CC3)/c(=C/c3ccccc3)n(C)c2=O)cc1 [Compound 1745, (3Z,6Z)-6-Benzylidene-5-cyclopropylmethoxy-3-(4-methoxybenzylidene)-1-methyl-3,6-dihydro-2-pyrazinone]	35%	
80 µM	Cn1c(=O)/c(=C/c2ccccc2)n(CCBr)c(=O)/c1=C/c1ccccc1 [Compound 1803, (3Z,6Z)-3,6-Dibenzylidene-1-(2-bromoethyl)-4-methyl-2,5-piperazinedione]	50%	
	Cn1c(=O)/c(=C/c2ccccc2)nc(OCCc2ccccc2)/c1=C/c1ccccc1 [Compound 1820, (3Z,6Z)-3,6-Dibenzylidene-1-methyl-5-(2-phenethoxy)-3,6-dihydro-2-pyrazinone]	34%	
	COc1cccc2c1C(=O)c1c(O)c3c(c(O)c1C2=O)C[C@@](O)(C(=O)CO)C[C@@H]3O[C@H]1C[C@H](N)[C@H](O)[C@H](C)O1 [doxorubicin, reference compound]		toxicity of doxorubicin alone to AR 1.0 cells (AR 1.0 cells [2]; fixed concentration 0.5-1 μM): non-toxic
	CC(C)COc1n/c(=C\c2ccccc2)c(=O)n(C)/c1=C\c1ccccc1 [Compound 1821, (3Z,6Z)-3,6-Dibenzylidene-5-isobutoxy-1-methyl-3,6-dihydro-2-pyrazinone]	35%	
12 µM	Cn1c(=O)/c(=C/c2ccccc2)nc(OCc2ccncc2)/c1=C/c1ccccc1 [Compound 1901, (3Z,6Z)-3,6-Dibenzylidene-1-methyl-5-(4-pyridyl)methoxy-3,6-dihydro-2-pyrazinone]		
15 µM	Cn1c(=O)/c(=C/c2ccccc2)nc(OCC=CCBr)/c1=C/c1ccccc1 [Compound 1859, (3Z,6Z)-3,6-Dibenzylidene-5-(4-bromo-2-butenyloxy)-1-methyl-3,6-dihydro-2-pyrazinone]		
	Cn1c(=O)/c(=C/c2ccccc2)nc(OCC2CCCCC2)/c1=C/c1ccccc1 [Compound 1780]	20%	
	COc1ccc(/C=c2\[nH]c(=O)/c(=C/c3ccccc3)n(CC(=O)N3CCCC3)c2=O)cc1 [Compound 1526, N,N-Tetramethylene-(3Z,6Z)-6-benzylidene-3-(4-methoxybenzylidene)-2,5-dioxo-1-piperazinylacetamide]	23.3%	
15 µM	Cn1c(=O)/c(=C/c2ccccc2)n(CCc2ccccc2)c(=O)/c1=C/c1ccccc1 [Compound 1856, (3Z,6Z)-3,6-Dibenzylidene-4-methyl-1-phenethyl-2,5-piperazinedione]		
	Cn1c(=O)/c(=C/c2ccccc2)nc(OCN2C(=O)c3ccccc3C2=O)/c1=C/c1ccccc1 [Compound 1905, (3Z,6Z)-3,6-Dibenzylidene-1-methyl-5-phthalimidomethoxy-3,6-dihydro-2-pyrazinone]	29%	
	C=CCOc1n/c(=C\c2ccccc2)c(=O)n(C)/c1=C\c1ccccc1 [Compound 1864, (3Z,6Z)-5-Allyloxy-3,6-dibenzylidene-1-methyl-3,6-dihydro-2-pyrazinone]	45%	
35 µM	Cn1c(=O)/c(=C/c2ccccc2)n(CCO)c(=O)/c1=C/c1ccccc1 [Compound 1854, (3Z,6Z)-3,6-Dibenzylidene-1-(2-hydroxyethyl)-4-methyl-2,5-piperazinedione]		
	O=c1/c(=C/c2ccccc2)n(Cc2ccccc2)c(=O)/c(=C/c2ccccc2)n1Cc1ccccc1 [Compound 1906, (3Z,6Z)-1,4-Dibenzyl-3,6-dibenzylidene-2,5-piperazinedione]	34%	

SMILES	IC50 (AR 1.0 cells [1])	Emax (AR 1.0 cells [1])	also measured
CC(=O)OCCn1c(=O)/c(=C/c2ccccc2)n(C)c(=O)/c1=C/c1ccccc1 [Compound 1817, (3Z,6Z)-1-(2-Acetoxyethyl)-3,6-dibenzylidene-4-methyl-2,5-piperazinedione]	20 µM		IC50 (AR 1.0 cells [2]; [3]): 20 µM; IC50 (AR 1.0 cells [2]; [4]): 1.5 µM
CC(=O)OCCOc1n/c(=C\c2ccccc2)c(=O)n(C)/c1=C\c1ccccc1 [Compound 1818, (3Z,6Z)-5-(2-Acetoxyethoxy)-3,6-dibenzylidene-1-methyl-3,6-dihydro-2-pyrazinone]	7 µM		IC50 (AR 1.0 cells [2]; [3]): 1.5 µM; IC50 (AR 1.0 cells [2]; [4]): 0.8 µM
Cn1c(=O)/c(=C/c2ccccc2)nc(OCCCCN2C(=O)c3ccccc3C2=O)/c1=C/c1ccccc1 [Compound 1903, (3Z,6Z)-3,6-Dibenzylidene-1-methyl-5-(4-phthalimidobutoxy)-3,6-dihydro-2-pyrazinone]	9 µM		
